# Measured values as given in ChEMBL document CHEMBL3045586, “Synthesis and antimicrobial activity of some new 4-triazolylmethoxy-2H-chromen-2-one derivatives” (2012).
# Legend:
# Klebsiella pneumoniae [1] = experiment: Antibacterial activity against Klebsiella pneumoniae MTCC 432 after 16 to 18 hr by serial dilution method; assay type: functional
# Escherichia coli [2] = experiment: Bactericidal against Escherichia coli MTCC 443 after 3 days; assay type: functional; details: MTCC 443, 72 h
# Aspergillus niger [3] = experiment: Antifungal activity against Aspergillus niger MTCC 282 at […] to […] ug/ml after 28 to 30 hr by cup-plate method; assay type: functional
# Aspergillus fumigatus [4] = experiment: Antifungal activity against Aspergillus fumigatus MTCC 343 at […] to […] ug/ml after 28 to 30 hr by cup-plate method; assay type: functional
# Staphylococcus aureus [5] = experiment: Bactericidal activity against Staphylococcus aureus MTCC 096 after 3 days; assay type: functional; details: MTCC 096, 72 h
# Klebsiella pneumoniae [6] = experiment: Bactericidal activity against Klebsiella pneumoniae MTCC 432 after 3 days; assay type: functional; details: MTCC 432, 72 h
# Klebsiella pneumoniae [7] = assay type: functional, MTCC 432
# [8] = system: Staphylococcus epidermidis; assay type: functional, MTCC 435; also: test concentration or dose not given here
# Aspergillus niger [9] = experiment: Antifungal activity against Aspergillus niger MTCC 282 after 28 to 30 hr by serial dilution method; assay type: functional
# Aspergillus flavus [10] = experiment: Antifungal activity against Aspergillus flavus MTCC 277 at […] to […] ug/ml after 28 to 30 hr by cup-plate method; assay type: functional
# Escherichia coli [11] = experiment: Antibacterial activity against Escherichia coli MTCC 443 after 16 to 18 hr by serial dilution method; assay type: functional
# Salmonella typhi [12] = experiment: Antibacterial activity against Salmonella enterica subsp. enterica serovar Typhi MTCC 733 at […] to […] ug/ml after 16 to 18 hr by cup-plate method; assay type: functional
# Candida albicans [13] = assay type: functional, MTCC 227
# Pseudomonas aeruginosa [14] = assay type: functional, MTCC 424
# Staphylococcus aureus [15] = assay type: functional, MTCC 096
# Candida albicans [16] = experiment: Antifungal activity against Candida albicans MTCC 227 after 28 to 30 hr by serial dilution method; assay type: functional
# Escherichia coli [17] = assay type: functional, MTCC 443
# Bacillus subtilis [18] = experiment: Antibacterial activity against Bacillus subtilis MTCC 441 after 16 to 18 hr by serial dilution method; assay type: functional
# Staphylococcus aureus [19] = experiment: Antibacterial activity against Staphylococcus aureus MTCC 096 after 16 to 18 hr by serial dilution method; assay type: functional
# Candida albicans [20] = experiment: Fungicidal activity against Candida albicans MTCC 227 after 3 days; assay type: functional; details: MTCC 227, 72 h
# [21] = system: Staphylococcus epidermidis; experiment: Antibacterial activity against Staphylococcus epidermidis MTCC 435 after 16 to 18 hr by serial dilution method; assay type: functional
# Pseudomonas aeruginosa [22] = experiment: Antibacterial activity against Pseudomonas aeruginosa MTCC 424 after 16 to 18 hr by serial dilution method; assay type: functional
# Aspergillus niger [23] = experiment: Fungicidal activity against Aspergillus niger MTCC 282 after 3 days; assay type: functional; details: MTCC 282, 72 h
# Bacillus subtilis [24] = assay type: functional, MTCC 441
# Aspergillus fumigatus [25] = experiment: Antifungal activity against Aspergillus fumigatus MTCC 343 after 28 to 30 hr by serial dilution method; assay type: functional
# Salmonella typhi [26] = experiment: Antibacterial activity against Salmonella enterica subsp. enterica serovar Typhi MTCC 733 after 16 to 18 hr by serial dilution method; assay type: functional
# Aspergillus flavus [27] = experiment: Antifungal activity against Aspergillus flavus MTCC 277 after 28 to 30 hr by serial dilution method; assay type: functional
smiles,measurement,setting,value
O=c1cc(OCc2nnc(-c3ccc(F)cc3)[nH]2)c2ccccc2o1,MIC,Klebsiella pneumoniae [1],6.25 µg/mL
same,MBC,Escherichia coli [2],25 µg/mL
same,inhibition zone (IZ),Aspergillus niger [3],13 mm
same,inhibition zone (IZ),Aspergillus fumigatus [4],12 mm
same,MBC,Staphylococcus aureus [5],12.5 µg/mL
same,MBC,Klebsiella pneumoniae [6],25 µg/mL
same,inhibition zone (IZ),Klebsiella pneumoniae [7],13 mm
same,inhibition zone (IZ),[8],<10 mm
same,MIC,Aspergillus niger [9],12.5 µg/mL
same,inhibition zone (IZ),Aspergillus flavus [10],11 mm
same,MIC,Escherichia coli [11],12.5 µg/mL
same,inhibition zone (IZ),Salmonella typhi [12],11 mm
same,inhibition zone (IZ),Candida albicans [13],14 mm
same,inhibition zone (IZ),Pseudomonas aeruginosa [14],<10 mm
same,inhibition zone (IZ),Staphylococcus aureus [15],13 mm
same,MIC,Candida albicans [16],6.25 µg/mL
same,inhibition zone (IZ),Escherichia coli [17],11 mm
same,MIC,Bacillus subtilis [18],50 µg/mL
same,MIC,Staphylococcus aureus [19],6.25 µg/mL
same,MFC,Candida albicans [20],12.5 µg/mL
same,MIC,[21],50 µg/mL
same,MIC,Pseudomonas aeruginosa [22],25 µg/mL
same,MFC,Aspergillus niger [23],25 µg/mL
same,inhibition zone (IZ),Bacillus subtilis [24],<10 mm
same,MIC,Aspergillus fumigatus [25],12.5 µg/mL
same,MIC,Salmonella typhi [26],12.5 µg/mL
same,MIC,Aspergillus flavus [27],12.5 µg/mL
COc1cc(-c2nnc(COc3cc(=O)oc4ccccc34)[nH]2)ccc1O,MIC,Klebsiella pneumoniae [1],6.25 µg/mL
same,MBC,Escherichia coli [2],12.5 µg/mL
same,inhibition zone (IZ),Aspergillus niger [3],12 mm
same,inhibition zone (IZ),Aspergillus fumigatus [4],13 mm
same,MBC,Staphylococcus aureus [5],12.5 µg/mL
same,MBC,Klebsiella pneumoniae [6],12.5 µg/mL
same,inhibition zone (IZ),Klebsiella pneumoniae [7],15 mm
same,inhibition zone (IZ),[8],<10 mm
same,MIC,Aspergillus niger [9],12.5 µg/mL
same,inhibition zone (IZ),Aspergillus flavus [10],<10 mm
same,MIC,Escherichia coli [11],6.25 µg/mL
same,inhibition zone (IZ),Salmonella typhi [12],14 mm
same,inhibition zone (IZ),Candida albicans [13],14 mm
same,inhibition zone (IZ),Pseudomonas aeruginosa [14],<10 mm
same,inhibition zone (IZ),Staphylococcus aureus [15],15 mm
same,MIC,Candida albicans [16],6.25 µg/mL
same,inhibition zone (IZ),Escherichia coli [17],13 mm
same,MIC,Bacillus subtilis [18],12.5 µg/mL
same,MIC,Staphylococcus aureus [19],6.25 µg/mL
same,MFC,Candida albicans [20],12.5 µg/mL
same,MIC,[21],50 µg/mL
same,MIC,Pseudomonas aeruginosa [22],25 µg/mL
same,MFC,Aspergillus niger [23],12.5 µg/mL
same,inhibition zone (IZ),Bacillus subtilis [24],11 mm
same,MIC,Aspergillus fumigatus [25],12.5 µg/mL
same,MIC,Salmonella typhi [26],6.25 µg/mL
same,MIC,Aspergillus flavus [27],25 µg/mL
COc1cc(-c2nnc(COc3cc(=O)oc4ccccc34)[nH]2)cc(OC)c1OC,MIC,Klebsiella pneumoniae [1],12.5 µg/mL
same,MBC,Escherichia coli [2],25 µg/mL
same,inhibition zone (IZ),Aspergillus niger [3],14 mm
same,inhibition zone (IZ),Aspergillus fumigatus [4],11 mm
same,MBC,Staphylococcus aureus [5],25 µg/mL
same,MBC,Klebsiella pneumoniae [6],25 µg/mL
same,inhibition zone (IZ),Klebsiella pneumoniae [7],11 mm
same,inhibition zone (IZ),[8],12 mm
same,MIC,Aspergillus niger [9],6.25 µg/mL
same,inhibition zone (IZ),Aspergillus flavus [10],<10 mm
same,MIC,Escherichia coli [11],12.5 µg/mL
same,inhibition zone (IZ),Salmonella typhi [12],14 mm
same,inhibition zone (IZ),Candida albicans [13],12 mm
same,inhibition zone (IZ),Pseudomonas aeruginosa [14],<10 mm
same,inhibition zone (IZ),Staphylococcus aureus [15],14 mm
same,MIC,Candida albicans [16],12.5 µg/mL
same,inhibition zone (IZ),Escherichia coli [17],12 mm
same,MIC,Bacillus subtilis [18],6.25 µg/mL
same,MIC,Staphylococcus aureus [19],6.25 µg/mL
same,MFC,Candida albicans [20],25 µg/mL
same,MIC,[21],12.5 µg/mL
same,MIC,Pseudomonas aeruginosa [22],25 µg/mL
same,MFC,Aspergillus niger [23],25 µg/mL
same,inhibition zone (IZ),Bacillus subtilis [24],14 mm
same,MIC,Aspergillus fumigatus [25],25 µg/mL
same,MIC,Salmonella typhi [26],6.25 µg/mL
same,MIC,Aspergillus flavus [27],25 µg/mL
O=C(O)c1cn(C2CC2)c2cc(N3CCNCC3)c(F)cc2c1=O [CIPROFLOXACIN],MIC,Klebsiella pneumoniae [1],6.25 µg/mL
same,inhibition zone (IZ),Klebsiella pneumoniae [7],17 mm
same,inhibition zone (IZ),[8],15 mm
same,inhibition zone (IZ),Salmonella typhi [12],19 mm
same,inhibition zone (IZ),Pseudomonas aeruginosa [14],16 mm
same,inhibition zone (IZ),Staphylococcus aureus [15],17 mm
same,MIC,Bacillus subtilis [18],6.25 µg/mL
same,MIC,[21],6.25 µg/mL
same,inhibition zone (IZ),Bacillus subtilis [24],18 mm
same,MIC,Salmonella typhi [26],6.25 µg/mL
O=c1cc(OCc2nnc(-c3ccc(Cl)cc3)[nH]2)c2ccccc2o1,MIC,Klebsiella pneumoniae [1],12.5 µg/mL
same,inhibition zone (IZ),Aspergillus niger [3],12 mm
same,inhibition zone (IZ),Aspergillus fumigatus [4],<10 mm
same,inhibition zone (IZ),Klebsiella pneumoniae [7],12 mm
same,inhibition zone (IZ),[8],<10 mm
same,MIC,Aspergillus niger [9],12.5 µg/mL
same,inhibition zone (IZ),Aspergillus flavus [10],12 mm
same,MIC,Escherichia coli [11],6.25 µg/mL
same,inhibition zone (IZ),Salmonella typhi [12],12 mm
same,inhibition zone (IZ),Candida albicans [13],14 mm
same,inhibition zone (IZ),Pseudomonas aeruginosa [14],12 mm
same,inhibition zone (IZ),Staphylococcus aureus [15],12 mm
same,MIC,Candida albicans [16],6.25 µg/mL
same,inhibition zone (IZ),Escherichia coli [17],13 mm
same,MIC,Bacillus subtilis [18],12.5 µg/mL
same,MIC,Staphylococcus aureus [19],12.5 µg/mL
same,MIC,[21],50 µg/mL
same,MIC,Pseudomonas aeruginosa [22],12.5 µg/mL
same,inhibition zone (IZ),Bacillus subtilis [24],11 mm
same,MIC,Aspergillus fumigatus [25],25 µg/mL
same,MIC,Salmonella typhi [26],12.5 µg/mL
same,MIC,Aspergillus flavus [27],12.5 µg/mL
